Results published in PMC9833666, “Designing and identifying β-hairpin peptide macrocycles with antibiotic potential” (Science Advances, 2023).
Bridge positions count the residues as written; N and C are the ends. Peptide text beside a SMILES is read from it.

Test system: Escherichia coli W3110
Format: cell-based
Settings: for Ec W3110 MIC MH: E. coli W3110, MH medium; for Ec W3110 MIC RPMI: E. coli W3110, RPMI medium

Structure (SMILES)	Ec W3110 MIC MH [µg/mL]	Ec W3110 MIC RPMI [µg/mL]	W3110 MIC MH [µg/mL]	W3110 MIC RPMI [µg/mL]
CC[C@H](C)[C@@H]1NC(=O)[C@H](CCCCN)NC(=O)[C@H](CC(C)C)NC(=O)[C@H](CCCNC(=N)N)NC(=O)[C@H](CCCNC(=N)N)NC(=O)[C@H](CCCNC(=N)N)NC(=O)[C@H](CCCNC(=N)N)NC(=O)[C@H](CC(N)=O)NC(=O)[C@H](CC(N)=O)NC(=O)[C@H](CC(C)C)NC(=O)[C@H](CCCNC(=N)N)NC(=O)[C@H](C(C)C)NC(=O)[C@H](CCCNC(=N)N)NC(=O)[C@H](C(C)C)NC(=O)[C@@H](N)CSSC[C@@H](C(=O)O)NC(=O)[C@H](C(C)C)NC(=O)[C@H](CCC(=O)O)NC(=O)[C@H](CC(C)C)NC(=O)[C@H](CO)NC1=O [SySA-78] (H-CVRVRLNNRRRRLKISLEVC-OH; disulfide 1-20; N-terminus and C-terminus assumed)	32	16	32	16
CC[C@H](C)[C@@H]1NC(=O)[C@H](CCCNC(=N)N)NC(=O)[C@H](C(C)C)NC(=O)[C@@H](N)CSSC[C@@H](C(=O)O)NC(=O)[C@H](C(C)C)NC(=O)[C@H](CCC(N)=O)NC(=O)[C@H](CC(C)C)NC(=O)[C@H]([C@@H](C)O)NC(=O)[C@H](C(C)C)NC(=O)[C@H](CCCCN)NC(=O)[C@H](C(C)C)NC(=O)[C@H](CCCNC(=N)N)NC(=O)[C@H](CCCNC(=N)N)NC(=O)[C@H](CCCNC(=N)N)NC(=O)[C@H](CCCNC(=N)N)NC(=O)[C@H](CC(N)=O)NC(=O)[C@H](CC(N)=O)NC(=O)[C@H](CC(C)C)NC(=O)[C@H](CCCNC(=N)N)NC1=O [SySA-80] (H-CVRIRLNNRRRRVKVTLQVC-OH; disulfide 1-20; N-terminus and C-terminus assumed)	16	16	16	16
CC(C)C[C@@H]1NC(=O)[C@H](CCCNC(=N)N)NC(=O)[C@H](C(C)C)NC(=O)[C@H]([C@@H](C)O)NC(=O)[C@H](CC(C)C)NC(=O)[C@@H](N)CSSC[C@@H](C(=O)O)NC(=O)[C@H](C(C)C)NC(=O)[C@H](CCC(N)=O)NC(=O)[C@H](C(C)C)NC(=O)[C@H](CO)NC(=O)[C@H](C(C)C)NC(=O)[C@H](CCCCN)NC(=O)[C@H](C(C)C)NC(=O)CNC(=O)[C@H](CCCNC(=N)N)NC(=O)[C@H](CCCNC(=N)N)NC(=O)[C@H](CCCNC(=N)N)NC(=O)[C@H](CC(N)=O)NC(=O)[C@H](CC(N)=O)NC1=O [SySA-81] (H-CLTVRLNNRRRGVKVSVQVC-OH; disulfide 1-20; N-terminus and C-terminus assumed)	64	32	64	32

Now from value to molecule:

Ec W3110 MIC MH [µg/mL]	Ec W3110 MIC RPMI [µg/mL]	W3110 MIC MH [µg/mL]	W3110 MIC RPMI [µg/mL]	Structure (SMILES)
64	32	64	32	CC(C)C[C@@H]1NC(=O)[C@H](CCCNC(=N)N)NC(=O)[C@H](CCCNC(=N)N)NC(=O)[C@H](CCCNC(=N)N)NC(=O)CNC(=O)[C@H](CC(N)=O)NC(=O)[C@H](CC(N)=O)NC(=O)[C@H](C(C)C)NC(=O)[C@H](CCCNC(=N)N)NC(=O)[C@H](C(C)C)NC(=O)[C@H](CCCNC(=N)N)NC(=O)[C@H](C(C)C)NC(=O)[C@@H](N)CSSC[C@@H](C(=O)O)NC(=O)[C@H](C(C)C)NC(=O)[C@H](CCC(N)=O)NC(=O)[C@H](CC(C)C)NC(=O)[C@H](CO)NC(=O)[C@H](C(C)C)NC(=O)[C@H](CCCCN)NC1=O [SySA-79] (H-CVRVRVNNGRRRLKVSLQVC-OH; disulfide 1-20; N-terminus and C-terminus assumed)
64	8	64	8	CC[C@H](C)[C@@H]1NC(=O)[C@H](CCCCN)NC(=O)[C@H](CC(C)C)NC(=O)CNC(=O)[C@H](CCCNC(=N)N)NC(=O)[C@H](CCCNC(=N)N)NC(=O)[C@H](CCCNC(=N)N)NC(=O)[C@H](CC(N)=O)NC(=O)[C@H](CC(N)=O)NC(=O)[C@H](CC(C)C)NC(=O)[C@H](CCCNC(=N)N)NC(=O)[C@H]([C@@H](C)CC)NC(=O)[C@H](CCCNC(=N)N)NC(=O)[C@H](C(C)C)NC(=O)[C@@H](N)CSSC[C@@H](C(=O)O)NC(=O)[C@H](C(C)C)NC(=O)[C@H](CCC(N)=O)NC(=O)[C@H](CC(C)C)NC(=O)[C@H](CO)NC1=O [SySA-82] (H-CVRIRLNNRRRGLKISLQVC-OH; disulfide 1-20; N-terminus and C-terminus assumed)
128	16	128	16	CC[C@H](C)[C@@H]1NC(=O)[C@H](CCCCN)NC(=O)[C@H](CC(C)C)NC(=O)[C@H](CCCNC(=N)N)NC(=O)CNC(=O)CNC(=O)[C@H](CCCNC(=N)N)NC(=O)[C@H](CC(N)=O)NC(=O)[C@H](CC(N)=O)NC(=O)[C@H](C(C)C)NC(=O)[C@H](CCCNC(=N)N)NC(=O)[C@H](C(C)C)NC(=O)[C@H](CCCNC(=N)N)NC(=O)[C@H](C(C)C)NC(=O)[C@@H](N)CSSC[C@@H](C(=O)O)NC(=O)[C@H](C(C)C)NC(=O)[C@H](CCC(N)=O)NC(=O)[C@H](C(C)C)NC(=O)[C@H](CO)NC1=O [SySA-83] (H-CVRVRVNNRGGRLKISVQVC-OH; disulfide 1-20; N-terminus and C-terminus assumed)
32	8	32	8	CC[C@H](C)[C@@H]1NC(=O)[C@H](CCCCN)NC(=O)[C@H](CC(C)C)NC(=O)CNC(=O)[C@H](CCCNC(=N)N)NC(=O)[C@H](CCCNC(=N)N)NC(=O)[C@H](CCCNC(=N)N)NC(=O)[C@H](CC(N)=O)NC(=O)[C@H](CC(N)=O)NC(=O)[C@H](CC(C)C)NC(=O)[C@H](CCCNC(=N)N)NC(=O)[C@H](C(C)C)NC(=O)[C@H](CCCNC(=N)N)NC(=O)[C@H](C(C)C)NC(=O)[C@@H](N)CSSC[C@@H](C(=O)O)NC(=O)[C@H](C(C)C)NC(=O)[C@H](CCC(N)=O)NC(=O)[C@H](CC(C)C)NC(=O)[C@H]([C@@H](C)O)NC1=O [SySA-88] (H-CVRVRLNNRRRGLKITLQVC-OH; disulfide 1-20; N-terminus and C-terminus assumed)
